This data set is described as follows: Plasma protein binding by ultrafiltration, dog plasma. It counts as in vitro ADME. To be noted: beagle. The procedure: To prepare plasma samples of TPB15 at final concentrations of 4, 8, and 16 μg/mL, 1 μL of TPB15 dissolved in dimethyl sulfoxide (DMSO) at low (400 μg/mL), medium (800 μg/mL), and high (1600 μg/mL) concentrations was added to 99 μL of blank plasma obtained from humans, rats, mice, monkeys, and dogs. Each concentration was prepared in six replicates. The samples were then divided into two groups: one for determining the pre-ultrafiltration concentration (Cpre) and the other for measuring the post-ultrafiltration concentration (Ct), following the evaluation of the non-specific binding coefficient (NSB) of TPB15 to the ultrafiltration tubes. For Cpre determination, 10 μL of the sample was mixed with 990 μL of plasma, vortexed thoroughly, and analyzed for drug concentration using the previously reported liquid chromatography–tandem mass spectrometry (LC-MS/MS) method. For Ct determination, the samples were first incubated in a water bath at 37 °C for 3 h. After incubation, they were transferred to ultrafiltration tubes and centrifuged at 14,000 rpm for 20 min at 4 °C using a centrifuge (Sigma 3K-15) from Sigma Laborzentrifugen GmbH (Osterode am Harz, Germany). After centrifugation, 10 μL of the ultrafiltrate was mixed with 990 μL of plasma, vortexed, and analyzed for concentration using the same LC-MS/MS method. The formula for calculating the plasma protein binding rate (PPB) is as follows: PPB (%) = [1 − Ct/(1 − NSB)/Cpre] × 100%. (NSB: non-specific binding coefficient. […]).

Take `O=C(Nc1ccc(Cl)c(-c2nnc3c(Cl)cccn23)c1)c1ccc(Cl)nc1Cl` [TPB15]: the fraction unbound at 3 h, 4 μg/mL (dog, plasma, 4 μg/mL TPB15, ultrafiltration, 37 °C 3 h) was 0.185. This molecule showed a fraction unbound at 3 h, 8 μg/mL (dog, plasma, 8 μg/mL TPB15, ultrafiltration, 37 °C 3 h) of 0.19. For the setting “dog, plasma, 16 μg/mL TPB15, ultrafiltration, 37 °C 3 h”, the fraction unbound at 3 h, 16 μg/mL is 0.177. In addition, the fraction unbound at 3 h (dog plasma, 4 to 16 μg/mL, read-out: average plasma protein binding rates, range over concentrations) fell in the range of 0.177 to 0.19.
